{"source": "patent US20060264460A1", "about": "(Wyeth, priority 2005, published 2006)", "data": [{"target": "T1, human Cot/Tpl2 kinase (Homo sapiens, UniProt P41279)", "T1 construct": "human Cot/Tpl2 kinase construct encoding residues 30-398; 6His (N); made in house; host or cells: Sf9 insect cells, baculovirus system (BD Biosciences)", "T1 sequence (P41279 30-398)": "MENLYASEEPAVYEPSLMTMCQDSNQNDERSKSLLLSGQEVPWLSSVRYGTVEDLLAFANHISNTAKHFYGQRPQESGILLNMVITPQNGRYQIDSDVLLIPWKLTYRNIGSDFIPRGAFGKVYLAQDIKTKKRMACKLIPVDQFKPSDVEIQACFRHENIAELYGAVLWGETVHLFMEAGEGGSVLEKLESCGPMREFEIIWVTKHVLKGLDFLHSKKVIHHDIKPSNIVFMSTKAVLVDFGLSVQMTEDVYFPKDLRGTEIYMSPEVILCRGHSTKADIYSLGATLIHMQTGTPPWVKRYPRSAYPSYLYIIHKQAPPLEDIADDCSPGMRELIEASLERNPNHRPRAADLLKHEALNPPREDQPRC", "assay": "Tpl2/Cot kinase assay: GST-MEK1 phosphorylation detected by ELISA (DELFIA Eu)", "type": "biochemical", "conditions": "0.4 nM Tpl2, 35 nM GST-MEK1, 50 uM ATP, 1 h at 30° C.", "how_it_was_run": "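His-tagged human Tpl2 from Sf9 cells, Ni-affinity and size-exclusion purified (monomer). 0.4 nM Tpl2 with 35 nM GST-MEK1, 50 uM ATP, MOPS pH 7.2, 1% DMSO, 1 h at 30° C; EDTA stop. MEK1 Ser217/221 phosphorylation detected by anti-phospho-MEK1 and Eu-labelled secondary ELISA; IC50 fitted.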", "units": {"IC50": "nM"}, "values": [{"smiles": "N#Cc1cnc2c(Br)cc(NCc3[nH]cnc3C(F)(F)F)cc2c1Nc1ccc(F)c(Cl)c1", "note": "[Example 114, 8-bromo-4-(3-chloro-4-fluorophenylamino)-6-((4-(trifluoromethyl)-1H-imidazol-5-yl)methylamino)quinoline-3-carbonitrile]", "IC50": 310}, {"smiles": "CC(C)c1nc[nH]c1CNc1cc(Br)c2ncc(C#N)c(Nc3ccc(F)c(Cl)c3)c2c1", "note": "[Example 115, 8-bromo-4-(3-chloro-4-fluorophenylamino)-6-((4-isopropyl-1H-imidazol-5-yl)methylamino)quinoline-3-carbonitrile]", "IC50": 130}, {"smiles": "N#Cc1cnc2c(Br)cc(NC(=O)Cc3cnc[nH]3)cc2c1Nc1ccc(F)c(Cl)c1", "note": "[Example 117, N-(8-bromo-4-(3-chloro-4-fluorophenylamino)-3-cyanoquinolin-6-yl)-2-(1H-imidazol-5-yl)acetamide]", "IC50": "> 40000"}, {"smiles": "N#Cc1cnc2c(Br)cc(NCc3nn[nH]c3-c3ccccc3F)cc2c1Nc1ccc(F)c(Cl)c1", "note": "[Example 118, 8-bromo-4-[(3-chloro-4-fluorophenyl)amino]-6-({[5-(2-fluorophenyl)-1H-1,2,3-triazol-4-yl]methyl}amino)quinoline-3-carbonitrile]", "IC50": 110}, {"smiles": "N#Cc1cnc2c(Br)cc(NCc3nn[nH]c3-c3cccc(F)c3)cc2c1Nc1ccc(F)c(Cl)c1", "note": "[Example 119, 8-bromo-4-[(3-chloro-4-fluorophenyl)amino]-6-({[5-(3-fluorophenyl)-1H-1,2,3-triazol-4-yl]methyl}amino)quinoline-3-carbonitrile]", "IC50": 350}, {"smiles": "N#Cc1cnc2ccc(NCc3ccc(S(=O)(=O)N4CCOCC4)cc3)cc2c1Nc1ccc(F)c(Cl)c1", "note": "[Example 120, 6-(4-(morpholinosulfonyl)benzylamino)-4-(3-chloro-4-fluorophenylamino)quinoline-3-carbonitrile]", "IC50": 24}, {"smiles": "N#Cc1cnc2ccc(NCc3ccc(S(N)(=O)=O)cc3)cc2c1Nc1ccc(F)c(Cl)c1", "note": "[Example 121, 4-((4-(3-chloro-4-fluorophenylamino)-3-cyanoquinolin-6-ylamino)methyl)benzenesulfonamide]", "IC50": 114}, {"smiles": "CN1CCN(S(=O)(=O)c2ccc(CNc3ccc4ncc(C#N)c(Nc5ccc(F)c(Cl)c5)c4c3)cc2)CC1", "note": "[Example 122, 6-(4-(4-methylpiperazin-1-ylsulfonyl)benzylamino)-4-(3-chloro-4-fluorophenylamino)quinoline-3-carbonitrile]", "IC50": 580}, {"smiles": "CN(C)CCNS(=O)(=O)c1ccc(CNc2ccc3ncc(C#N)c(Nc4ccc(F)c(Cl)c4)c3c2)cc1", "note": "[Example 123, 4-((4-(3-chloro-4-fluorophenylamino)-3-cyanoquinolin-6-ylamino)methyl)-N-(2-(dimethylamino)ethyl)benzenesulfonamide]", "IC50": 540}, {"smiles": "CN(C)Cc1cc(NCc2cccnc2)cc2c(Nc3cccc(Br)c3)c(C#N)cnc12", "note": "[Example 124, 4-(3-bromophenylamino)-8-((dimethylamino)methyl)-6-(pyridin-3-ylmethylamino)quinoline-3-carbonitrile]", "IC50": "> 10000"}, {"smiles": "Cc1cc(N)cc2c(Nc3cccc(Br)c3)c(C#N)cnc12", "note": "[Example 125, 6-amino-4-(3-bromophenylamino)-8-methylquinoline-3-carbonitrile]", "IC50": 11000}, {"smiles": "Cc1cc(NCc2cccnc2)cc2c(Nc3cccc(Br)c3)c(C#N)cnc12", "note": "[Example 126, 4-(3-bromophenylamino)-8-methyl-6-(pyridin-3-ylmethylamino)quinoline-3-carbonitrile]", "IC50": 3300}, {"smiles": "CC(Nc1ccc2ncc(C#N)c(Nc3ccc(F)c(Cl)c3)c2c1)c1ccccn1", "note": "(stereo not shown) [Example 127, 4-(3-chloro-4-fluorophenylamino)-6-(1-(pyridin-2-yl)ethylamino)quinoline-3-carbonitrile]", "IC50": 64}, {"smiles": "Cc1c(CNc2ccc3ncc(C#N)c(Nc4ccc(F)c(Cl)c4)c3c2)ncn1C", "note": "[Example 128, 4-(3-chloro-4-fluorophenylamino)-6-((1,5-dimethyl-1H-imidazol-4-yl)methylamino)quinoline-3-carbonitrile]", "IC50": 3.2}, {"smiles": "Cc1c(CNc2ccc3ncc(C#N)c(Nc4ccc(F)c(Cl)c4)c3c2)ncn1CCN1CCOCC1", "note": "[Example 129, 4-(3-chloro-4-fluorophenylamino)-6-((5-methyl-1-(2-morpholinoethyl)-1H-imidazol-4-yl)methylamino)quinoline-3-carbonitrile]", "IC50": 14}, {"smiles": "Cc1ncn(CCN2CCOCC2)c1CNc1ccc2ncc(C#N)c(Nc3ccc(F)c(Cl)c3)c2c1", "note": "[Example 130, 4-(3-chloro-4-fluorophenylamino)-6-((4-methyl-1-(2-morpholinoethyl)-1H-imidazol-5-yl)methylamino)quinoline-3-carbonitrile]", "IC50": 260}, {"smiles": "Cc1cc(NCCN2CCOCC2)cc2c(Nc3cccc(Br)c3)c(C#N)cnc12", "note": "[Example 131, 4-(3-bromophenylamino)-8-methyl-6-(2-morpholinoethylamino)quinoline-3-carbonitrile]", "IC50": 16000}, {"smiles": "Cc1nn(C)c(Cl)c1CNc1ccc2ncc(C#N)c(Nc3ccc(F)c(Cl)c3)c2c1", "note": "[Example 132, 6-((5-chloro-1,3-dimethyl-1H-pyrazol-4-yl)methylamino)-4-(3-chloro-4-fluorophenylamino)quinoline-3-carbonitrile]", "IC50": 17300}, {"smiles": "Cc1ncn(C)c1CNc1ccc2ncc(C#N)c(Nc3ccc(F)c(Cl)c3)c2c1", "note": "[Example 133, 4-(3-chloro-4-fluorophenylamino)-6-((1,4-dimethyl-1H-imidazol-5-yl)methylamino)quinoline-3-carbonitrile]", "IC50": 200}, {"smiles": "CN(C)Cc1cc(NCCN2CCOCC2)cc2c(Nc3cccc(Br)c3)c(C#N)cnc12", "note": "[Example 134, 4-(3-bromophenylamino)-8-((dimethylamino)methyl)-6-(2-morpholinoethylamino)quinoline-3-carbonitrile]", "IC50": "> 40000"}, {"smiles": "Cn1cc(Cl)c(CNc2ccc3ncc(C#N)c(Nc4ccc(F)c(Cl)c4)c3c2)n1", "note": "[Example 135, 6-((4-chloro-1-methyl-1H-pyrazol-3-yl)methylamino)-4-(3-chloro-4-fluorophenylamino)quinoline-3-carbonitrile]", "IC50": "> 40000"}, {"smiles": "N#Cc1cnc2ccc(NCc3nccn3CC(=O)O)cc2c1Nc1ccc(F)c(Cl)c1", "note": "[Example 136, 2-(2-((4-(3-chloro-4-fluorophenylamino)-3-cyanoquinolin-6-ylamino)methyl)-1H-imidazol-1-yl)acetic acid]", "IC50": 64}, {"smiles": "COC(=O)Cn1ccnc1CNc1ccc2ncc(C#N)c(Nc3ccc(F)c(Cl)c3)c2c1", "note": "[Example 137, Methyl 2-(2-((4-(3-chloro-4-fluorophenylamino)-3-cyanoquinolin-6-ylamino)methyl)-1H-imidazol-1-yl)acetate]", "IC50": 28}, {"smiles": "N#Cc1cnc2ccc(NCc3nccn3CC(=O)N3CCOCC3)cc2c1Nc1ccc(F)c(Cl)c1", "note": "[Example 138, 4-(3-chloro-4-fluorophenylamino)-6-((1-(2-morpholino-2-oxoethyl)-1H-imidazol-2-yl)methylamino)quinoline-3-carbonitrile]", "IC50": 27}, {"smiles": "N#Cc1cnc2ccc(NCc3nccn3CC(N)=O)cc2c1Nc1ccc(F)c(Cl)c1", "note": "[Example 139, 2-(2-((4-(3-chloro-4-fluorophenylamino)-3-cyanoquinolin-6-ylamino)methyl)-1H-imidazol-1-yl)acetamide]", "IC50": 99}, {"smiles": "CN(C)C(=O)Cn1ccnc1CNc1ccc2ncc(C#N)c(Nc3ccc(F)c(Cl)c3)c2c1", "note": "[Example 140, 2-(2-((4-(3-chloro-4-fluorophenylamino)-3-cyanoquinolin-6-ylamino)methyl)-1H-imidazol-1-yl)-N, N-dimethylacetamide]", "IC50": 20}, {"smiles": "CN1CCN(C(=O)Cn2ccnc2CNc2ccc3ncc(C#N)c(Nc4ccc(F)c(Cl)c4)c3c2)CC1", "note": "[Example 141, 4-(3-chloro-4-fluorophenylamino)-6-((1-(2-(4-methylpiperazin-1-yl)-2-oxoethyl)-1H-imidazol-2-yl)methylamino)quinoline-3-carbonitrile]", "IC50": 120}, {"smiles": "CC(C)(C)OC(=O)N1CCC(NC(=O)Cn2ccnc2CNc2ccc3ncc(C#N)c(Nc4ccc(F)c(Cl)c4)c3c2)CC1", "note": "[Example 142, tert-butyl 4-(2-(2-((4-(3-chloro-4-fluorophenylamino)-3-cyanoquinolin-6-ylamino)methyl)-1H-imidazol-1-yl)acetamido)piperidine-1-carboxylate]", "IC50": 1800}, {"smiles": "N#Cc1cnc2ccc(NCc3nccn3CC(=O)NC3CCNCC3)cc2c1Nc1ccc(F)c(Cl)c1", "note": "[Example 143, 2-(2-((4-(3-chloro-4-fluorophenylamino)-3-cyanoquinolin-6-ylamino)methyl)-1H-imidazol-1-yl)-N-(piperidin-4-yl)acetamide]", "IC50": 750}, {"smiles": "N#Cc1cnc2ccc(NCc3ccccc3F)cc2c1Nc1ccc(F)c(Cl)c1", "note": "[Example 144, 6-(2-fluorobenzylamino)-4-(3-chloro-4-fluorophenylamino)quinoline-3-carbonitrile]", "IC50": 920}, {"smiles": "N#Cc1cnc2ccc(NCc3cccc(F)c3)cc2c1Nc1ccc(F)c(Cl)c1", "note": "[Example 145, 6-(3-fluorobenzylamino)-4-(3-chloro-4-fluorophenylamino)quinoline-3-carbonitrile]", "IC50": 2100}, {"smiles": "N#Cc1cnc2ccc(NCc3ccc(F)cc3)cc2c1Nc1ccc(F)c(Cl)c1", "note": "[Example 146, 6-(4-fluorobenzylamino)-4-(3-chloro-4-fluorophenylamino)quinoline-3-carbonitrile]", "IC50": 5300}, {"smiles": "N#Cc1cnc2ccc(NCc3cccc(Br)c3)cc2c1Nc1ccc(F)c(Cl)c1", "note": "[Example 147, 6-(3-bromobenzylamino)-4-(3-chloro-4-fluorophenylamino)quinoline-3-carbonitrile]", "IC50": 1600}, {"smiles": "N#Cc1cnc2ccc(NCc3cccc(OC(F)(F)F)c3)cc2c1Nc1ccc(F)c(Cl)c1", "note": "[Example 148, 6-(3-(trifluoromethoxy)benzylamino)-4-(3-chloro-4-fluorophenylamino)quinoline-3-carbonitrile]", "IC50": 2200}]}]}
